This is an account of results in DBAASP.

In general, MIC refers to the lowest concentration that inhibits growth of the organism. Read a low MIC as inhibition by little substance.

In brackets after ≈: the same amount, converted by molar mass. Where only a bound is given, the exact number is not on record here.

Experiment in all cases: ≥ marks a high value that may be exact or a test limit, other limits are often not marked, values filed in µg/mL are converted to µM
Assay [1] concerns Staphylococcus aureus ATCC 29213.
The test system of assay [2] is Salmonella typhimurium CMCC 50013.
In assay [3] the test system is Streptococcus mutans.
In assay [4] the test system is Listeria monocytogenes CMCC 54002.
Assay [5] has as its system Escherichia coli ATCC 25922.
Assay [6] concerns Shigella dysenteriae CMCC 51302.
For assay [7], the system named is Streptococcus pyogenes ATCC 12344.
Assay [8] deals with Escherichia coli ATCC 25726.
The subject of assay [9] is Acinetobacter baumannii Ab5755.
For assay [10], the system named is Acinetobacter baumannii NM109.
In assay [11] the test system is Acinetobacter baumannii NM75.
Assay [12] has as its system Staphylococcus aureus ATCC 25923.
The subject of assay [13] is Acinetobacter baumannii NM124.
Assay [14] relates to Pseudomonas aeruginosa Pa4216.
Assay [15] relates to Pseudomonas aeruginosa Pa1409.
The test system of assay [16] is Acinetobacter baumannii NM35.
In assay [17] the test system is Acinetobacter baumannii Ab1408.
Assay [18] concerns Acinetobacter baumannii.
Assay [19] deals with Candida albicans ATCC 90028.
The subject of assay [20] is Acinetobacter baumannii Ab5753.
Assay [21] relates to Escherichia coli Ec513.
Assay [22] relates to Acinetobacter baumannii NM8.
Assay [23] concerns Staphylococcus aureus Sa1390.
Assay [24] relates to Escherichia coli KCTC 1682.
Assay [25] has as its system Salmonella typhimurium KCTC 1926.
Assay [26] concerns Staphylococcus aureus KCTC 1621.
Assay [27] relates to Pseudomonas aeruginosa KCTC 1637.
Assay [28] deals with Candida albicans KCTC 7270.
Assay [29] concerns Saccharomyces cerevisiae KCTC 7296.
In assay [30] the test system is Trichosporon beigelii KCTC 7707.
Assay [31] concerns Bacillus subtilis KCTC 1918.
The subject of assay [32] is Staphylococcus epidermidis KCTC 1917.
Assay [33] has as its system Candida krusei ATCC 6258.
Assay [34] deals with Pseudomonas aeruginosa ATCC 27853.
For assay [35], the system named is Cryptococcus neoformans ATCC 90012.
In assay [36] the test system is Candida parapsilosis ATCC 22019.
Assay [37] concerns Listeria monocytogenes ATCC 35152.
For assay [38], the system named is Klebsiella pneumoniae ATCC 13883.
Assay [39] relates to Pseudomonas syringae pv. syringae EPS 94.
For assay [40], the system named is Xanthomonas campestris pv. Vesicatoria 2133-2.
In assay [41] the test system is Erwinia amylovora PMV 6076.

For the compound `CC(C)C[C@H](NC(=O)CN)C(=O)N[C@@H](Cc1ccccc1)C(=O)N[C@@H](CCCN=C(N)N)C(=O)N[C@@H](C)C(=O)N[C@@H](CC(C)C)C(=O)N[C@@H](CC(C)C)C(=O)N[C@@H](CCCN=C(N)N)C(=O)N[C@@H](CC(C)C)C(=O)N[C@@H](CC(C)C)C(=O)N[C@@H](CCCN=C(N)N)C(=O)N[C@@H](CO)C(=O)N[C@@H](CC(C)C)C(=O)N[C@@H](Cc1c[nH]c2ccccc12)C(=O)N[C@@H](CCCN=C(N)N)C(=O)N[C@@H](CC(C)C)C(=O)N[C@@H](CC(C)C)C(=O)N[C@@H](CC(C)C)C(=O)N[C@@H](CCCN=C(N)N)C(=O)N[C@@H](C)C(=O)O` [GLFRALLRLLRSLWRLLLRA], the MIC was more than 64 µM in assay [1]; not below 64 µM in [2]; not below 64 µM in [3]; not below 64 µM in [4]; more than 64 µM in assay [5]; not below 64 µM in assay [6]. The same compound yielded an MIC in [7] not below 64 µM.
For the compound `CC[C@H](C)[C@H](NC(=O)CN)C(=O)N[C@@H](Cc1c[nH]c2ccccc12)C(=O)N[C@@H](CCCCN)C(=O)N[C@H](C(=O)N[C@H](C(=O)N[C@@H](CCCCN)C(=O)N[C@@H](CO)C(=O)N[C@@H](CCSC)C(=O)NCC(=O)N[C@@H](CCCCN)C(=O)N[C@H](C(=O)N[C@@H](Cc1ccccc1)C(=O)N[C@@H](C)C(=O)NCC(=O)N[C@@H](CCCCN)C(=O)N[C@H](C(=O)N[C@@H](CC(C)C)C(=O)N[C@@H](CCC(N)=O)C(=O)N[C@@H](CC(N)=O)C(=O)N[C@@H](CC(C)C)C(N)=O)[C@@H](C)CC)C(C)C)[C@@H](C)CC)[C@@H](C)O` [GIWKTIKSMGKVFAGKILQNL], the MIC in assay [8] came out at 6.25 µM (≈ 14.6 µg/mL); in [9], 1.71 µM (≈ 4 µg/mL); in assay [10], 1.5 µM (≈ 3.5 µg/mL); in [11] it was 3 µM (≈ 7 µg/mL); in [12] it was 12.5 µM (≈ 29.1 µg/mL); in assay [13], 1.5 µM (≈ 3.5 µg/mL). Besides, the MIC came out at 13.7 µM (≈ 32 µg/mL) in [14]; 13.7 µM (≈ 32 µg/mL) in assay [15]; 3 µM (≈ 7 µg/mL) in [16]; 6.86 µM (≈ 16 µg/mL) in assay [17]; 6.25 µM (≈ 14.6 µg/mL) in [18]; 6 µM (≈ 14 µg/mL) in [19]. The MIC in assay [20] was 3.43 µM (≈ 8 µg/mL); in [21] it was 3.43 µM (≈ 8 µg/mL); in assay [22], 3 µM (≈ 7 µg/mL); in assay [23] it was 6.86 µM (≈ 16 µg/mL).
Consider `CC[C@H](C)[C@H](NC(=O)[C@H](CCCCN)NC(=O)[C@H](CO)NC(=O)[C@H](Cc1ccccc1)NC(=O)[C@H](CC(C)C)NC(=O)[C@H](CCCCN)NC(=O)[C@H](CCC(=O)O)NC(=O)[C@H](CC(C)C)NC(=O)[C@H](CCCN=C(N)N)NC(=O)[C@H](CCCCN)NC(=O)[C@H](Cc1ccccc1)NC(=O)[C@H](Cc1c[nH]c2ccccc12)NC(=O)[C@@H](N)CCCCN)C(N)=O` [KWFKRLEKLFSKI], for which the MIC was determined as 3.12 µM (≈ 5.38 µg/mL) in assay [24]; 0.78 µM (≈ 1.34 µg/mL) in assay [25]; 1.56 µM (≈ 2.69 µg/mL) in [26]; 1.56 µM (≈ 2.69 µg/mL) in assay [27]; 17.7 µM (≈ 30.4 µg/mL) in [28]; 6.25 µM (≈ 10.8 µg/mL) in assay [29]. The minimum inhibitory concentration (MIC) in [30] amounted to 1.56 µM (≈ 2.69 µg/mL); in [31], 1.56 µM (≈ 2.69 µg/mL); in [32] it was 3.12 µM (≈ 5.38 µg/mL).
Consider `CC[C@H](C)[C@H](NC(=O)[C@H](Cc1ccccc1)NC(=O)[C@H](CC(N)=O)NC(=O)[C@H](CCCCN)NC(=O)[C@H](C)NC(=O)[C@@H](NC(=O)[C@H](CC(N)=O)NC(=O)[C@H](Cc1ccccc1)NC(=O)[C@H](C)NC(=O)[C@H](C)NC(=O)[C@H](CCCCN)NC(=O)CNC(=O)[C@H](CCCCN)NC(=O)[C@H](CCCCN)NC(=O)[C@H](CCCCN)NC(=O)[C@H](C)NC(=O)[C@@H](NC(=O)[C@H](CC(=O)O)NC(=O)[C@H](CC(C)C)NC(=O)[C@H](Cc1c[nH]c2ccccc12)NC(=O)CN)C(C)C)C(C)C)C(N)=O` [GWLDVAKKKGKAAFNVAKNFI], for which the MIC in assay [33] turned out to be 31 µM (≈ 71.4 µg/mL); in assay [34], 32 µM (≈ 73.8 µg/mL); in [5], 8 µM (≈ 18.4 µg/mL); in [19], 16 µM (≈ 36.9 µg/mL); in assay [35], 31 µM (≈ 71.4 µg/mL); in assay [36], 31 µM (≈ 71.4 µg/mL).
`CC(C)C[C@H](NC(=O)[C@H](CCCN=C(N)N)NC(=O)[C@H](CCCCN)NC(=O)[C@@H](N)Cc1c[nH]c2ccccc12)C(=O)N[C@H](C(=O)N[C@@H](C)C(=O)N[C@@H](C)C(=O)N[C@@H](CO)C(=O)N[C@@H](C)C(=O)N[C@@H](CCCCN)C(=O)N[C@@H](CCCCN)C(=O)N[C@@H](CCCCN)C(N)=O)C(C)C` [WKRLVAASAKKK]: the MIC in [37] was 10.8 µM (≈ 15 µg/mL); in [34], 14.4 µM (≈ 20 µg/mL); in [12] it was 7.22 µM (≈ 9.99 µg/mL); in assay [5] it was 10.8 µM (≈ 15 µg/mL); in assay [38], 18 µM (≈ 25 µg/mL).
`CC[C@H](C)[C@H](NC(=O)[C@H](CCCCN)NC(=O)[C@H](CCCCN)NC(=O)[C@H](Cc1ccccc1)NC(=O)[C@H](CC(C)C)NC(=O)[C@H](CCCCN)NC(=O)[C@@H](N)CCCCN)C(=O)N[C@@H](CC(C)C)C(=O)N[C@@H](CCCCN)C(=O)N[C@@H](Cc1ccc(O)cc1)C(=O)N[C@@H](CC(C)C)C(=O)N[C@@H](CCCCN)C(=O)N[C@@H](CC(=O)O)C(=O)N[C@@H](CCC(=O)O)C(=O)N[C@@H](CC(C)C)C(=O)O` [KKLFKKILKYLKDEL]: the MIC was found to be 3.54 µM (≈ 6.74 µg/mL) in assay [39], 1.77 µM (≈ 3.37 µg/mL) in assay [40] and 3.54 µM (≈ 6.74 µg/mL) in assay [41].
